# Data from patent US20070043024A1, “Azacyclic compounds as inhibitors of sensory neurone specific channels” (priority 2003, published 2007).
# Target: T1, human Nav1.8 (hNav1.8) ion channel (Homo sapiens, UniProt Q9Y5Y9)
# T1 construct: expressed in transfected cells
# Assay: Inhibition of human Nav1.8 stably expressed in SH-SY-5Y cells (membrane potential dye fluorescence assay)
# Assay type: cell-based
# Conditions: Table 1; SH-SY-5Y hNav1.8 cells, inhibition of membrane depolarisation, FLIPR membrane potential dye, 250 nM TTX, test concentration range 100 μM-0.05 μM; read-out: IC50
# Description: Inhibition of Human Nav1.8 Stably Expressed in SH-SY-5Y Cells
# A SH-SY-5Y neuroblastoma cell line stably expressing the human […] (hNav1.8) ion channel was constructed. This cell line has been used to develop a medium to high throughput assay for determining the ability of test compounds to inhibit membrane depolarisation mediated via the hNav1.8 channel.
# SH-SY-5Y hNav1.8 are grown in adherent monolayer culture using 50:50 Ham's F-12/EMEM tissue culture medium supplemented with 15% (v/v) foetal bovine serum; 2 mM L-glutamine, 1% NEAA and 600 μg·ml^−1 Geneticin sulphate. Cells are removed from the tissue culture flask using trypsin/EDTA and re-plated into black walled, clear bottom 96-well assay plates at 50,000 cells·well^−1 24 hours prior to assay.
# On the day of assay the cell assay plates are washed to remove cell culture medium using a sodium free assay buffer (145 mM tetramethyl ammonium chloride; 2 mM calcium chloride; 0.8 mM magnesium chloride hexahydrate; 10 mM HEPES; 10 mM glucose; 5 mM potassium chloride, pH 7.4). Fluorescent membrane potential dye solution (FLIPR™ membrane potential dye, Molecular Devices Corporation), containing 10 μM of a pyrethroid to prevent channel inactivation and 250 nM tetrodotoxin (TTX) to reduce interference from TTX-sensitive sodium channels present in the cell line. Test compound, initially dissolved in dimethyl sulfoxide but further diluted in sodium free buffer, is added to achieve the final test concentration range of 100 μM-0.05 μM.
# Cell plates are incubated for 30 minutes at room temperature to allow equilibration of dye and test compound. Plates are then transferred to a fluorescence plate reader for fluorescence measurement using an excitation wavelength of 530 nm whilst measuring fluorescence emission at 565 nm. Baseline fluorescence levels are first determined before the addition of a sodium containing buffer (220 mM sodium chloride; 2 mM calcium chloride; 0.8 mM magnesium chloride hexahydrate; […]; 10 mM glucose; 5 mM potassium chloride. pH 7.4) to cause membrane depolarisation in those cells where channel block has not been effected (final sodium concentration=72.5 mM). Membrane depolarisation is registered by an increase in fluorescence emission at 565 nm.
# The change in fluorescence seen in each test well upon the addition of sodium containing buffer is calculated relative to the baseline fluorescence for that well. This figure is then used for calculating the IC50 for each test compound.
# T1 sequence (Q9Y5Y9 whole entry): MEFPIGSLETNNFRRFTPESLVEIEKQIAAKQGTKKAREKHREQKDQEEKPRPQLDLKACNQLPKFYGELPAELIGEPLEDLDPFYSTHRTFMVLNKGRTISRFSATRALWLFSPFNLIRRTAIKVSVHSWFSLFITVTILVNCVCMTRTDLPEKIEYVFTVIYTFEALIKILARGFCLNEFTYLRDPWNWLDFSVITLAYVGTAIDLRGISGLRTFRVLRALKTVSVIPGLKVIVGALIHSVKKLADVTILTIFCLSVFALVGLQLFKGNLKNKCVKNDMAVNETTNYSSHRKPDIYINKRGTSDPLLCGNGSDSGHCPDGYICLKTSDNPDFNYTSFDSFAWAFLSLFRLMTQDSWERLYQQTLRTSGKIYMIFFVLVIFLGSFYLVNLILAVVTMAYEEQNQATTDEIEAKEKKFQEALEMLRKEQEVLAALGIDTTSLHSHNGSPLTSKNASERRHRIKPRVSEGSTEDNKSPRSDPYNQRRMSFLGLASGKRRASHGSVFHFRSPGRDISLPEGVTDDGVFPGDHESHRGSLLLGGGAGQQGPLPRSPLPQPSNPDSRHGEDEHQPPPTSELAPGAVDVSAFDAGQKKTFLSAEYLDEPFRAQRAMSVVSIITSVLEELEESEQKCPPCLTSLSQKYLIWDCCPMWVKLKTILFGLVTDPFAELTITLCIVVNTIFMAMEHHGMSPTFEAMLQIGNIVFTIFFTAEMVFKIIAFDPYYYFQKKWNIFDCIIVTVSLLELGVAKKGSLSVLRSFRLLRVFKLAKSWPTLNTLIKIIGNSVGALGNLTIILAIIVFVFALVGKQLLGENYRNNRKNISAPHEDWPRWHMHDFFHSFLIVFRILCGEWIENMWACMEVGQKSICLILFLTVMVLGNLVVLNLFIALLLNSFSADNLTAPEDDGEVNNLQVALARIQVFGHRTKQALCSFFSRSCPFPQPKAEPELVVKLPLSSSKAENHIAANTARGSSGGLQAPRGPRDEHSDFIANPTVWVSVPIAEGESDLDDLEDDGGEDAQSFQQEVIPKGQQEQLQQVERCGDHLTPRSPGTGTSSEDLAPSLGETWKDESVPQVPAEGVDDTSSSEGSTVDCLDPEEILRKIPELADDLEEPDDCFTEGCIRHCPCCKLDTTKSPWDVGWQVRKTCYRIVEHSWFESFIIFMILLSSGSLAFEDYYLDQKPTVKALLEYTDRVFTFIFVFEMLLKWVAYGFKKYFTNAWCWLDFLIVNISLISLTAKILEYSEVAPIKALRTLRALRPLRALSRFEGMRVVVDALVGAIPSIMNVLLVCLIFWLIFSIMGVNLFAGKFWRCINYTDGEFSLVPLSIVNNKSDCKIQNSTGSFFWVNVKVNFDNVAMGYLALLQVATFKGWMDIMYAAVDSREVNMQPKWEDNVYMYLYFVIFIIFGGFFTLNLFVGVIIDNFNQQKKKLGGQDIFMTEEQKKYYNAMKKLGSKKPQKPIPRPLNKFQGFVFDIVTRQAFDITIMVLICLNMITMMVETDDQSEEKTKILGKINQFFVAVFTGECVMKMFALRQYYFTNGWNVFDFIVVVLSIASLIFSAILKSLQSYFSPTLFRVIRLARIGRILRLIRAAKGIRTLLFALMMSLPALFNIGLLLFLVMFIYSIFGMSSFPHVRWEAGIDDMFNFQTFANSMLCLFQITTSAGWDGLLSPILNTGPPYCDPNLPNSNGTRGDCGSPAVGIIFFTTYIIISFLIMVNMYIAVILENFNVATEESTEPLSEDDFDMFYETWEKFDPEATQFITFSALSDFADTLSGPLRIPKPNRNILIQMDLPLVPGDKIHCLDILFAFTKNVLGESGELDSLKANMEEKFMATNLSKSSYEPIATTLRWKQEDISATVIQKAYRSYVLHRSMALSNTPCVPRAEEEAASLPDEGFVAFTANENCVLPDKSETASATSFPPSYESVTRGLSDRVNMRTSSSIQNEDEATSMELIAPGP
row,SMILES,IC50 [nM]
1,"COc1cccc2c1CN(CCCC(c1ccc(F)cc1)c1ccc(F)cc1)CC2 [Example 10, 2-[4,4-Bis-(4-fluoro-phenyl)-butyl]-8-methoxy-1,2,3,4-tetrahydro-isoquinoline]",480
2,"Oc1cccc2c1CN(Cc1c(F)cccc1Cl)CC2 [Example 91, 2-(2-Chloro-6-fluoro-benzyl)-1,2,3,4-tetrahydro-isoquinolin-8-ol]",6910
3,"O=C(CN1CCc2cccc(O)c2C1)N1c2ccccc2OCC1c1ccccc1 (stereo not shown) [Example 70, 2-(8-Hydroxy-3,4-dihydro-1H-isoquinolin-2-yl)-1-(3-phenyl-2,3-dihydro-benzo[1,4]oxazin-4-yl)-ethanone]",2140
4,"O=C(CN1CCc2cccc(O)c2C1)NC1c2ccccc2-c2ccccc21 [Example 26, N-(9H-fluoren-9-yl)-2-(8-hydroxy-3,4-dihydro-1H-isoquinolin-2-yl)acetamide]",670
5,"COc1ccc2c(c1)CN(CCNCCC(c1ccccc1)c1ccccc1)CC2 [Example 89, (3,3-Diphenyl-propyl)-[2-(7-methoxy-3,4-dihydro-1H-isoquinolin-2-yl)-ethyl]amine]",490
6,"Oc1cccc2c1CN(Cc1cc(C(F)(F)F)cc(C(F)(F)F)c1)CC2 [Example 95, 2-(3,5-Bis-trifluoromethyl-benzyl)-1,2,3,4-tetrahydro-isoquinolin-8-ol]",1710
7,"Cc1cc(C(C)(CCCN2CCc3cccc(O)c3C2)c2cc(C)c(O)c(C)c2)cc(C)c1O [Example 97, 2-[4,4-Bis-(4-hydroxy-3,5-dimethyl-phenyl)-pentyl]-1,2,3,4-tetrahydroisoquinolin-8-ol]",1060
8,"COc1cccc2c1CN(CC(=O)NC(c1ccccc1)c1ccccn1)CC2 (stereo not shown) [Example 69, 2-(8-methoxy-3,4-dihydro-1H-isoquinolin-2-yl)-N-(phenyl-pyridin-2-yl-methyl)-acetamide]",8960
9,"O=C(CN1CCc2cccc(O)c2C1)N(Cc1ccccc1)Cc1ccccc1 [Example 23, N,N-Dibenzyl-2-(8-hydroxy-3,3-dihydro-1H-isoquinolin-2-yl)-acetamide]",260
10,"Oc1cccc2c1CN(Cc1ccc(SC(F)(F)F)cc1)CC2 [Example 94, 2-(4-Trifluoromethylsulfanyl-benzyl)-1,2,3,4-tetrahydro-isoquinolin-8-ol]",2170
11,"COc1cccc2c1CN(C(=O)CNC(c1ccccc1)c1ccccc1)CC2 [Example 38, 2-(Benzhydryl-amino)-1-(8-methoxy-3,4-dihydro-1H-isoquinoline-2-yl)-ethanone]",1390
12,"O=C(CN1Cc2ccccc2C1)N1CCN(C(c2ccc(F)cc2)c2ccc(F)cc2)CC1 [Example 68, 1-{4-[Bis-(4-fluoro-phenyl)-methyl]-piperazin-1-yl}-2-(1,3-dihydro-isoindol-2-yl)-ethanone]",1950
13,"O=C(CN1CCc2ccccc2C1)N1CCN(C(c2ccccc2)c2ccccc2)CC1 [Example 64, 1-(4-Benzhydryl-piperazin-1-yl)-2-(3,4-dihydro-1H-isoquinolin-2-yl)-ethanone]",3140
14,"O=C(CN(Cc1ccccc1)Cc1ccccc1)N1CCc2ccccc2C1 [Example 35, 2-Dibenzylamino-1-(3,4-dihydro-1H-isoquinolin-2-yl)-ethanone]",4860

# Same assay, conditions: Table 2 (compound numbers of the list in the description); SH-SY-5Y hNav1.8 cells, inhibition of membrane depolarisation, FLIPR membrane potential dye, 250 nM TTX, test concentration range 100 μM-0.05 μM; read-out: IC50
row,SMILES,IC50 [nM]
1,"COc1cc2c(cc1OC)CN(CCNC(=S)NC(c1ccccc1)c1ccccc1)CC2 [Compound 134, 1-Benzhydryl-3-[2-(6,7-dimethoxy-3,4-dihydro-1H-isoquinolin-2-yl)-ethyl]-thiourea]",770
2,"COc1cccc2c1CN(CC(=O)NC(C)c1ccccc1)CC2 (stereo not shown) [Compound 105, 2-(8-Methoxy-3,4-dihydro-1H-isoquinolin-2-yl)-N-(1-phenyl-ethyl)-acetamide]",15900
3,"O=C(CN1CCc2cccc(O)c2C1)NN(c1ccccc1)c1ccccc1 [Compound 167, (8-Hydroxy-3,4-dihydro-1H-isoquinolin-2-yl)-acetic acid N′,N′-diphenyl-hydrazide]",4510
4,"Cc1cc2cc(Cl)ccc2n1CCCNC(=O)CN1CCc2cccc(O)c2C1 [Compound 131, N-[3-(5-Chloro-2-methyl-indol-1-yl)-propyl]-2-(8-hydroxy-3,4-dihydro-1H-isoquinolin-2-yl)-acetamide]",3610
5,"O=C(CN1CCc2cccc(O)c2C1)N1c2ccccc2Sc2ccc(C(F)(F)F)cc21 [Compound 145, 2-(8-Hydroxy-3,4-dihydro-1H-isoquinolin-2-yl)-1-(2-trifluoromethyl-phenothiazin-10-yl)-ethanone]",2630
6,"COc1cc2c(cc1OC)CN(CCNC(=O)NC(c1ccccc1)c1ccccc1)CC2 [Compound 136, 1-Benzhydryl-3-[2-(6,7-dimethoxy-3,4-dihydro-1H-isoquinolin-2-yl)-ethyl]-urea]",2110
7,"COc1cccc2c1CN(CCCOC=C(c1ccccc1)c1ccccc1)CC2 [Compound 74, 2-[3-(2,2-diphenyl-vinyloxy)-propyl]-8-methoxy-1,2,3,4-tetrahydro-isoquinoline]",1800
8,"COc1cc2c(cc1OC)CN(CCNC(=O)N1c3ccccc3Sc3ccccc31)CC2 [Compound 161, Phenothiazine-10-carboxylic acid [2-(6,7-dimethoxy-3,4-dihydro-1H-isoquinolin-2-yl)-ethyl]-amide]",1110
9,"O=C(CN1CCc2cccc(O)c2C1)Nc1ccccc1Oc1ccccc1 [Compound 185, 2-(8-Hydroxy-3,4-dihydro-1H-isoquinolin-2-yl)-N-(2-phenoxy-phenyl)-acetamide]",1850
10,"COc1cccc2c1CN(CC(=O)NCCCOC(c1ccccc1)c1ccccc1)CC2 [Compound 94, N-(3-Benzhydryloxy-propyl)-2-(8-methoxy-3,4-dihydro-1H-isoquinolin-2-yl)-acetamide]",2840
11,"CS(=O)(=O)N(c1cccc2c1CN(CC(=O)N1c3ccccc3Oc3ccccc31)CC2)S(C)(=O)=O [Compound 197, N-Methanesulfonyl-N-[2-(2-oxo-2-phenoxazin-10-yl-ethyl)-1,2,3,4-tetrahydro-isoquinolin-8-yl]-methanesulfonamide]",3830
12,"COc1cc2c(cc1OC)CN(CC(=O)N1c3ccccc3Sc3ccc(C(F)(F)F)cc31)CC2 [Compound 154, 2-(6,7-Dimethoxy-3,4-dihydro-1H-isoquinolin-2-yl)-1-(2-trifluoromethyl-phenothiazin-10-yl)-ethanone]",12400
13,"COc1cccc2c1CN(CCC(=O)N(Cc1ccccc1)Cc1ccccc1)CC2 [Compound 87, N,N-dibenzyl-3-(8-methoxy-3,4-dihydro-1H-isoquinolin-2-yl)-propionamide]",490
14,"O=C(CNC(c1ccccc1)c1ccccc1)N1Cc2ccccc2C1 [Compound 107, 2-(Benzhydryl-amino)-1-(1,3-dihydro-isoindol-2-yl)-ethanone]",2260
15,"COc1cc2c(cc1OC)CN(CC(=O)NC(c1ccc(F)cc1)c1ccc(F)cc1)CC2 [Compound 121, N-[Bis-(4-fluoro-phenyl)-methyl]-2-(6,7-dimethoxy-3,4-dihydro-1H-isoquinolin-2-yl)-acetamide]",3450
16,"CS(=O)(=O)Nc1cccc2c1CN(CC(=O)N1c3ccccc3Oc3ccccc31)C2 [Compound 210, N-[2-(2-Oxo-2-phenoxazin-10-yl-ethyl)-2,3-dihydro-1H-isoindol-4-yl]-methanesulfonamide]",3460
17,"COc1cccc2c1CN(CC(=O)N1c3ccccc3OCC1c1ccc(NC(C)=O)cc1)CC2 (stereo not shown) [Compound 214, N-(4-{4-[2-(8-Methoxy-3,4-dihydro-1H-isoquinolin-2-yl)-acetyl]-3,4-dihydro-2H-benzo[1,4]oxazin-3-yl}-phenyl)-acetamide]",6360
18,"COc1cccc2c1CN(C(C)C(=O)N1c3ccccc3Oc3ccccc31)C2 (stereo not shown) [Compound 217, 2-(4-Methoxy-1,3-dihydro-isoindol-2-yl)-1-phenoxazin-10-yl-propan-1-one]",1960
19,"O=C(CN1CCc2cccc(O)c2C1)NCCCn1c2ccccc2c2ccccc21 [Compound 129, N-(3-Carbazol-9-yl-propyl)-2-(8-hydroxy-3,4-dihydro-1H-isoquinolin-2-yl)-acetamide]",2480
20,"COc1cccc2c1CN(CCC(=O)N1c3ccccc3Oc3ccccc31)CC2 [Compound 189, 3-(8-Methoxy-3,4-dihydro-1H-isoquinolin-2-yl)-1-phenoxazin-10-yl-propan-1-one]",510
